Measurements as given in PubChem BioAssay (NCI).
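Five concentrations, 48 hours, 96-well plates. Definition used: TGI = concentration required for complete inhibition of growth.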

Experiments:
Assay in all cases: inhibition of tumour cell growth, NCI panel, 48 h
MOLT-4 leukemia = test system: MOLT-4 leukemia
NCI-H226 lung = test system: NCI-H226 lung
RPMI-8226 leukemia = test system: RPMI-8226 leukemia
M14 melanoma = test system: M14 melanoma
MDA-MB-435 = test system: MDA-MB-435
TK-10 renal = test system: TK-10 renal
MALME-3M melanoma = test system: MALME-3M melanoma
HOP-62 NSCLC = test system: HOP-62 NSCLC
LOX IMVI melanoma = test system: LOX IMVI melanoma
OVCAR-8 ovarian = test system: OVCAR-8 ovarian
NCI-H460 lung = test system: NCI-H460 lung
K-562 leukemia = test system: K-562 leukemia
MDA-N = test system: MDA-N
COLO 205 colon = test system: COLO 205 colon
HCT-15 colon = test system: HCT-15 colon
DU-145 prostate = test system: DU-145 prostate
SN12C renal = test system: SN12C renal
SK-OV-3 ovarian = test system: SK-OV-3 ovarian
SF-295 CNS = test system: SF-295 CNS
EKVX NSCLC = test system: EKVX NSCLC

Structure (SMILES) | TGI (MOLT-4 leukemia) [µM] | TGI (NCI-H226 lung) [µM] | TGI (RPMI-8226 leukemia) [µM] | TGI (M14 melanoma) [µM] | TGI (MDA-MB-435) [µM] | TGI (TK-10 renal) [µM] | TGI (MALME-3M melanoma) [µM] | TGI (HOP-62 NSCLC) [µM] | TGI (LOX IMVI melanoma) [µM] | TGI (OVCAR-8 ovarian) [µM] | TGI (NCI-H460 lung) [µM] | TGI (K-562 leukemia) [µM] | TGI (MDA-N) [µM] | TGI (COLO 205 colon) [µM] | TGI (HCT-15 colon) [µM] | TGI (DU-145 prostate) [µM] | TGI (SN12C renal) [µM] | TGI (SK-OV-3 ovarian) [µM] | TGI (SF-295 CNS) [µM] | TGI (EKVX NSCLC) [µM]
COc1ccc(/C=c2/sc3n(c2=O)C(c2ccccc2)C2(O)CCCCC2N=3)cc1 (stereo unspecified) | > 12.5 | > 12.5 | > 12.5 | > 12.5 | > 12.5 | > 12.5 | > 12.5 | > 12.5 | > 12.5 | > 12.5 | > 12.5 | > 12.5 | > 12.5 |  |  |  |  |  |  | 
CCN(CC)c1ccc2cc(C(N)=O)c(=N)oc2c1 | > 100 | > 100 | > 100 | > 100 | > 100 |  |  | > 100 | > 100 | > 100 | > 100 | > 100 | > 100 | > 100 | > 100 | > 100 | > 100 | > 100 |  | 
C=CC[C@H]1O[Si](C(C)(C)C)(C(C)(C)C)[C@H](C)[C@H]1C | > 100 | > 100 |  | > 100 | > 100 | > 100 | > 100 | > 100 | > 100 | > 100 |  | > 100 | > 100 | > 100 | > 100 |  | > 100 | > 100 | > 100 | > 100
O=C(NC(=S)Nc1ccc(Br)cc1)c1ccc2c(c1)Sc1ccccc1S2 | 26.7 | 47.7 |  | 42.9 | > 100 | 30.9 | 48.5 | 31 | 61.4 | 34.7 | 32.3 | 24.5 | > 100 | > 100 | > 100 | 32.4 | 38.4 | 33 | 38.6 | 
Cc1ccc(Nc2nc(=O)c3c4ccccc4n(C(=O)OC(C)(C)C)c3s2)cc1 | > 100 |  | 48.7 | 44.1 | 38.1 | 99.9 | 66.3 | 64.1 | 46.7 | > 100 | 43.1 | > 100 |  | > 100 | > 100 | > 100 |  | > 100 | 65.6 | > 100
O=C1NC(N/N=C/c2ccccc2)=N/C1=C\c1ccco1 | > 100 | > 100 | > 100 | > 100 | > 100 | 92.3 | > 100 | 50.6 |  | 34.9 | 45.5 |  |  | > 100 | > 100 | > 100 | > 100 | > 100 | > 100 | > 100
N#Cc1cccc2c1Sc1ccccc1N2 | 85.7 | > 100 | > 100 | > 100 | > 100 | 75.8 | > 100 |  | 36.5 | > 100 | > 100 | > 100 |  | 60.2 | > 100 | > 100 | > 100 | > 100 | 69.1 | 97.4
